Experimental findings from PMC3958783, “Molybdenum Reduction to Molybdenum Blue in Serratia sp. Strain DRY5 Is Catalyzed by a Novel Molybdenum-Reducing Enzyme” (BioMed Research International, 2014) are described below.

Read-outs that look alike come from different tables or passages of the source.

The test system of test [1] is T1, Mo-reducing enzyme.
T1 construct: native protein purified from cytoplasmic fraction (Mono Q twice, Zorbax GF-250); monomer, 105 kDa by gel filtration, 100 kDa by SDS-PAGE
Description: initial rates of Mo blue formation, absorbance at […] nm, nonlinear regression. Type of test: biochemical, Serratia sp. DRY5. The following applies: assay 50 mM citrate phosphate pH 5.0, room temperature, read-out: apparent Km.

Test [2] deals with T1, Mo-reducing enzyme. Description: Mo blue formation assay, […] nm. Type of test: biochemical, Serratia sp. DRY5. Conditions: general reagent, assay with 12-MP and NADH; for IC50: read-out: Concentrations which decrease enzyme activity by 50%.

For 12-MP, the Km with Mo-reducing enzyme [1] (5 mM NADH, electron acceptor) worked out at 3870 µM.

In the case of `OCCS` [2-Mercaptoethanol], at Mo-reducing enzyme [2] (thiol), the IC50 came out at 5 mM.

As for `OC(CS)C(O)CS` (stereo not drawn) [DTT], at Mo-reducing enzyme [2] (thiol), the IC50 came to 10 mM.

As for `O=C(O)CN(CCN(CC(=O)O)CC(=O)O)CC(=O)O` [EDTA], the IC50 at Mo-reducing enzyme [2] (metal chelator) amounted to 0.1 mM.

As to `NC(=O)C1=CN([C@@H]2O[C@H](COP(=O)(O)OP(=O)(O)OC[C@H]3O[C@@H](n4cnc5c(N)ncnc54)[C@H](O)[C@@H]3O)[C@@H](O)[C@H]2O)C=CC1` [NADH], the Michaelis constant (Km) with Mo-reducing enzyme [1] (15 mM 12-MP, electron donor) stood at 790 µM.

Turning to `CCCCCCCCCCCCOS(=O)(=O)O` [SDS], the “Concentrations which decrease enzyme activity by 50%” value at Mo-reducing enzyme [2] (denaturing detergent) stood at 0.1%.

As usually defined, the Km is the substrate concentration at which the rate is half of its maximum.
